In US10080774B2, “Oncolytic adenovirus armed with therapeutic genes” (priority 2002, dated 2018):
Values after ≈ are worked out from the molar mass of the structure shown.

Legend:
[1] = tested on: parental U251MG cells; assay: Cell viability assay, 5-FC dose response; assay type: cell-based; conditions: Homo sapiens, U-251, 120 h, 5 days
Method: (§1) Note the shift to the left of the IC50 curve for the hyCD stable-transfected U251MG cells in the presence of 5-FC. IC50 values for both cultures are indicated.
(§2) U251MG and U87MG cell lines were grown to 95% monolayer confluence. The cells were trypsinized and harvested with 0.25% trypsin/EDTA, plated in 6-well tissue culture plates, and allowed to adhere overnight at 37° C. in 5% CO2 humidified incubators. 5-FU or 5-FC in serial 0.5-log concentrations in 100 μl aliquots was added directly to the cells to achieve final concentrations, as previously described (Miller, 2002). Cells were incubated at 37° C. for 5 days and cell viability by cellular respiration was determined using 3-(4,5-methylthiazole-2-yl)-5-(3-carboxymethoxy-phenyl)-2-(4-sulfonyl)-2H-tetrazolium) (Promega, Madison, Wis.) according to the manufacturer's protocol. The cell survival fraction was measured at each drug concentration as the ratio of absorbance at 490 nm relative to untreated cells. This calculation was normalized for background absorbance of the culture medium alone. The cell survival fraction was plotted against the logarithm of the drug concentration, and IC50 values were calculated using a sigmoidal dose-response curve with variable slope in GraphPad Prism 3.01.

[2] = tested on: hyCD stable-transfected U251MG cells; assay: Cell viability assay, 5-FC dose response; assay type: cell-based, human
Method: as §1, §2

[3] = tested on: U-87 MG xenograft; assay: Survival with antiangiogenic compounds, glioma xenograft mouse model; assay type: in vivo, athymic mice; conditions: P>0.5 logrank
Method: Testing the effect of antiangiogenic compounds on the survival of human glioma xenograft mouse model. Comparative survival analysis of the anticancer effect of different antiangiogenic treatments have been performed using the U-87 MG xenograft mouse model). PTK787/ZK 222584 was evaluated as a VEGFR inhibitor (Thomas et al., 2003); and imatinib/Glivec as a potent PDGFRβ inhibitor (Manley et al., 2002). Briefly, human glioma cells (5×10^5 U-87 MG) were engrafted into the caudate nucleus of athymic mice using a guide-screw system as previously described (Fueyo et al., 2003). […] Neither group treatment had long-term survivors.

[4] = Organ uptake after injection of W/Re-188 generator eluant; assay type: in vivo; conditions: 100 μCi
Method: Urine and later fecal accumulation (at 24 hours) is also observed.
Whole-mount sections of animals were prepared after tail vein injection of ^188Re elutant produced by a Rhenium generator at 100 μCi, which provides additional conformation of the anatomic localization of the images provided by gamma camera assessment. […] The bladder where the isotope is being eliminated is also visualized. Individual organs can be harvested and isotope counts can be determined per gram of tissue as a quantitative measure of radionuclide uptake.

[5] = tested on: U251 cells; assay: Cell mixing experiments, Tc99O4 uptake after Δ24-NIS infection; assay type: cell-based, human; conditions: U251 infected with Δ24-NIS
Method: Cells incubated with virus for 1.5 h then washed extensively and mixed at different percentages with uninfected U251 cells. Uptake assays were then performed at 48 h and values are given as fold increase (ratios) of Tc^99O4 within the cells compared to control cells.
U251MG and U87MG glioma cell lines are transiently transfected, then incubated with ^99mTcO4. These in vitro techniques are modifications of an assay developed by Petrich et al. (2002). Briefly, cells are plated into 24-well plates and allowed to achieve 90% confluence. Various titers of Δ24-NIS are added, incubating and infecting the cells for 2 h. The cells are then washed, and the assay performed at 24, 48, and 72 h. The cells are pre-incubated at 37° C. for 30 min in 1 ml of HEPES-buffered Hanks balanced salt solution (bHBSS). […] Cellular radioactivity is released with 1 ml ice-cold 100% ethanol for 20 min, and counted in a cross-calibrated gamma counter. Protein content of the 6 wells per cell line are determined using a BCA assay kit.
Because of the concern that an oncolytic virus could destroy the cells expressing the NIS transgene and blunt the ability to concentrate-adequate amounts of radionuclide, a study were performed to determine the percentage of cells required to obtain significant concentrations of isotope. […] The result is shown in FIG. 11 and is expressed as fold increase (ratios) over control cells.

[6] = molecular target: T1, EGFRvIII (Homo sapiens, UniProt P00533, DELINS30-297G); assay: Membrane fluorescence staining with anti-EGFRvIII peptide-FITC, flow cytometry; assay type: binding; conditions: 1 μM, 30 min
T1 construct: expressed in transfected cells; host or cells: U-87 MG stably transfected with mutant EGFR (U87MG.ΔEGFR; Nishikawa et al., 1994)
Method: Briefly, the inventors performed membrane fluorescence staining of single-cell suspensions after incubating U-87 MG, U87.wtEGFR, and U-87.ΔEGFRvIII (Nishikawa et al., 1994) with the anti-EGFRvIII peptide (PEPCH1)-FITC (1 μM) (Campa et al., 2000) for 30 min. The cells were then washed twice with PBS and then analyzed for fluorescence with an EPICS XL-MCL flow cytometer (Beckman-Coulter Inc., Miami, Fla.) using a 488 nm argon laser for excitation. Fluorescence was detected with a 520 nm band-pass filter, and all cytometric data was analyzed with the System II software (Beckman-Coulter Inc.). Data are shown as the percentages of FICT-positive cells (empty graph) compared to mock-treated cells (solid graphs) from a representative experiment.

[7] = molecular target: Tie2 (Homo sapiens, UniProt Q02763); assay: Tie2 phosphorylation, immunoprecipitation; assay type: cell-based; conditions: U-87 MG
Chain of Tie2 (Q02763 23-1124): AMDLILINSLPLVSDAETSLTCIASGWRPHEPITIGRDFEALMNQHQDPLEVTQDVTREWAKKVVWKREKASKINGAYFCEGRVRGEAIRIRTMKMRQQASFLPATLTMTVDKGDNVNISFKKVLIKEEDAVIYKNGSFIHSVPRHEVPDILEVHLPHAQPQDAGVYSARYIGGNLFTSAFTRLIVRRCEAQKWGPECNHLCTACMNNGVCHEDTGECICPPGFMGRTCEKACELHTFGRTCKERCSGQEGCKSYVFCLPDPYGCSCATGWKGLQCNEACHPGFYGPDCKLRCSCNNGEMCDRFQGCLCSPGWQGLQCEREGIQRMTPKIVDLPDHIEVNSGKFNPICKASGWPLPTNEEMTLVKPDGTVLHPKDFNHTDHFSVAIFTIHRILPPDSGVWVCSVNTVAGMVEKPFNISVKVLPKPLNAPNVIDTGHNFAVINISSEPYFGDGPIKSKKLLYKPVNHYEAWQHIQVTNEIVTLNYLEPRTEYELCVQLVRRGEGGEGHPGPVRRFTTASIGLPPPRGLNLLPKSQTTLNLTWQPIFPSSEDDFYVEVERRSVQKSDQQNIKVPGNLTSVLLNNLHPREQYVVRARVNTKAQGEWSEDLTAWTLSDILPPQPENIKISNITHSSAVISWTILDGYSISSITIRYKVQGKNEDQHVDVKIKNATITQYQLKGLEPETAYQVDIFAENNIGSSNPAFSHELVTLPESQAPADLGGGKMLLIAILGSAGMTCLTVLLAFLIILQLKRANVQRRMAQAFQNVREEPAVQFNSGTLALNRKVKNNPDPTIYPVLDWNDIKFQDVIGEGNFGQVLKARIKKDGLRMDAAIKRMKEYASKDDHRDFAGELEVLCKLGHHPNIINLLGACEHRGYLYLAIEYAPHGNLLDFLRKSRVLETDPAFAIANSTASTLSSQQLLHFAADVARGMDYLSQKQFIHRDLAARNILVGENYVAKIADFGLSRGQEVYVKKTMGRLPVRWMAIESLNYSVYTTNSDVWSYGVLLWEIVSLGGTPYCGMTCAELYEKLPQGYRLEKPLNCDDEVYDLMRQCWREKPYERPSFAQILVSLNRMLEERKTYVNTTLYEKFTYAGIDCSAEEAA
Method: To explore the regulation of Tie2 signaling by Angs in U-87 MG cells, Tie2 was immunoprecipitated from membrane fractions of U-87 MG cells treated with rAng1 (500 ng/ml) for 10 min, and phosphorylation of Tie2 was addressed using anti-phosphotyrosine antibody.

[8] = tested on: HU-VEC-C; assay: Tube formation (vascular-like structures) assay; assay type: cell-based, human; conditions: 400-800 ng/ML, 18 h
Method: This assay will be performed using an in vitro angiogenesis kit (Chemicon, Temecula, Calif.) according to the manufacturer's instructions. Wells in a 96-well plate will be coated with ECMatrix solution, and 5×10^3 cells will be plated in triplicate wells in a volume of 50 μl of EGM (Clonetics Corp.) containing 2% FBS. The cells will be incubated for 18 h at 37° C., and tube formation will be evaluated by phase-contract microscopy. To determine the viability of cells in these assays, cells will be stained with Hoechst 33342 (5 μg/ml, Sigma) and propidium iodide (2.5 μg/ml, Sigma) for 5 min at 37° C. and analyzed by fluorescence microscopy.
These studies were performed to elucidate the role of Ang-2 role in the process of angiogenesis.

[9] = tested on: CAM; assay: Angiogenesis in vivo, CAM model; design: species or system chicken; conditions: 72 h after treatment
Method: Fertilized chicken eggs (SPAFAS; Charles River Lab., Wilmington, Mass.) will be incubated at 37° C. at 55% humidity for 9 days. An artificial air sac will be created over a region containing small blood vessels in the CAM as described (Brooks et al., 1999). A small window will be cut in the shell after removing 3 ml of albumen. Filter disks (6 mm in diameter) will be coated with cortisone acetate in absolute ethanol (3 mg/mL). The CAM will be locally treated with filter disks saturated with a solution containing bFGF (50 ng/disk; R&D Systems, Minneapolis, Minn.) and VEGF121/rGel (at 1 or 10 nM), rGel (at 1 or 10 nM), or buffer (PBS). The filter will be placed on the CAM in a region with the lowest density of blood vessels, and in the vicinity, as reference, of a large vessel. Angiogenesis will be monitored by photography 3 days after treatment. Images will be captured using an Olympus stereomicroscope (SZ×12) and Spot™ Basic software (Diagnostic Instruments, Inc.). The relative vascular area will be determined by measuring the area taken up by blood vessels. […] The number of blood vessel branch points will be quantify by two researchers, and compared to the treatment controls (Brooks et al., 1999).
Ang-2 inhibits angiogenesis in vivo (CAM model). […] Vascular responses were assessed 72 h later.

[10] = cited from earlier work

Question: Which IC50 [1] does the source give for `Nc1nc(=O)[nH]cc1F` [5-FC, 5-fluorocytosine] here?
Answer: 3090 µg/mL (≈ 24 mM)

Question: And the IC50 ([2]; Homo sapiens, U-251, 120 h, U251MG cells expressing hyCD, 5 days)?
Answer: 12.4 µg/mL (≈ 0.0961 mM)

Question: And the “increased sensitivity of hyCD-expressing versus parental cells to 5-FC” value ([2]; U251MG)?
Answer: approximately 3 orders of magnitude

Question: For `Cc1ccc(NC(=O)c2ccc(CN3CCN(C)CC3)cc2)cc1Nc1nccc(-c2cccnc2)n1` [Imatinib], which survival versus vehicle [3] is on record?
Answer: did not significantly improve the survival

Question: Which survival versus vehicle [3] does the source give for `Clc1ccc(Nc2nnc(Cc3ccncc3)c3ccccc23)cc1` [PTK787] here?
Answer: did not significantly improve the survival

Question: Which “tissues with uptake of 188ReO4” value [4] does the source give for `[O]=[188Re](=[O])(=[O])[O-]` [^188ReO4, Rhenium-188 perrenate] here?
Answer: thyroid and stomach

Question: For `[O-][Cl+3]([O-])([O-])O` [sodium perchlorate], which “inhibition of NIS activity” value [5] is on record?
Answer: complete inhibition of NIS activity

Question: For “HFLIIGFMRRALCGA [PEPCH1, anti-EGFRvIII peptide, FITC-labeled]”, which “binding to EGFRvIII-expressing cells” value [6] is on record?
Answer: specific binding

Question: Which results are given for “rhAng-2: recombinant angiopoietin 2 protein”?
Answer: effect on Ang1-induced Tie2 phosphorylation [7]: Inhibition of Tie2 phosphorylation; formation of vascular-like structures [8]: lost their ability to form vascular-like structures; vascular response in CAM [9]: dramatically decreased newly sprouting angiogenic vessels

B1: bakers' yeast CD: cytosine deaminase previously isolated from Saccharomyces cerevisiae (protein, UniProt Q12178 1-158, looked up)
Cytosine deaminase: MVTGGMASKWDQKGMDIAYEEAALGYKEGGVPIGGCLINNKDGSVLGRGHNMRFQKGSATLHGEISTLENCGRLEGKVYKDTTLYTTLSPCDMCTGAIIMYGIPRCVVGENVNFKSKGEKYLQTRGHEVVVVDDERCKKIMKQFIDERPQDWFEDIGE
Question: Which “time activity is maintained in solution” value ([10]; 4° C., pH 5-9) does the source give for B1 here?
Answer: at least 48 hr

Question: And the “time to lose half of activity” value ([10]; 37° C., crude preparation)?
Answer: 1 h
